Measured values published in ChEMBL document CHEMBL5465560, “Selectivity Literature for EUbOPEN Chemogenomic Library” (2024).

Tests used:
[1] = molecular target: Ribosomal protein S6 kinase alpha-1 (Homo sapiens, UniProt Q15418); assay: Selectivity interaction (Kinase panel (Enzymatic assay, microfluidic mobility shift readout, Caliper lifesciences, conc. ATP = Km for each kinase)) EUB0000678a RPS6KA1
[2] = molecular target: T1, Interleukin-1 receptor-associated kinase 4 (Homo sapiens, UniProt Q9NWZ3); assay: Selectivity interaction (Kinase panel (Enzymatic assay, microfluidic mobility shift readout, Caliper lifesciences, conc. ATP = Km for each kinase)) EUB0000678a IRAK4
T1 sequence (Q9NWZ3 whole entry): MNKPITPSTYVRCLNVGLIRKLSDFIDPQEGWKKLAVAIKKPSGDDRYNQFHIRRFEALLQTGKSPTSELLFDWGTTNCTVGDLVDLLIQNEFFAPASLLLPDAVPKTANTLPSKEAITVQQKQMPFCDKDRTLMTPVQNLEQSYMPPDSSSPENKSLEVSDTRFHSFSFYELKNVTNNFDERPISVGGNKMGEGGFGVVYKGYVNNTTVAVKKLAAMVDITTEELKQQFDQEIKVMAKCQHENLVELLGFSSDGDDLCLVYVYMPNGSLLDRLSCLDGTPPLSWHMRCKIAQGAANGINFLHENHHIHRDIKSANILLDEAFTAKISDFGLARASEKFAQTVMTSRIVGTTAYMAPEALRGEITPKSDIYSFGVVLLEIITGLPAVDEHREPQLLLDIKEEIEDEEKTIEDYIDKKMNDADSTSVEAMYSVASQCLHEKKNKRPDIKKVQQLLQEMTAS

[3] = Selectivity interaction (Kinase panel (cellular selectivity, Bright-Glo proliferation assay in BaF3 Cell line, Promega)) EUB0000678a TYK2
[4] = Selectivity interaction (Kinase panel (cellular selectivity, Bright-Glo proliferation assay in BaF3 Cell line, Promega)) EUB0000678a MET
[5] = Selectivity interaction (Kinase panel (cellular selectivity, Bright-Glo proliferation assay in BaF3 Cell line, Promega)) EUB0000678a EPHB1
[6] = Selectivity interaction (Kinase panel (cellular selectivity, Bright-Glo proliferation assay in BaF3 Cell line, Promega)) EUB0000678a SYK
[7] = Selectivity interaction (Kinase panel (cellular selectivity, Bright-Glo proliferation assay in BaF3 Cell line, Promega)) EUB0000678a TEK
[8] = Selectivity interaction (Kinase panel (cellular selectivity, Bright-Glo proliferation assay in BaF3 Cell line, Promega)) EUB0000678a RET
[9] = molecular target: Calcium/calmodulin-dependent protein kinase type II subunit alpha (Homo sapiens, UniProt Q9UQM7); assay: Selectivity interaction (Kinase panel (Enzymatic assay, microfluidic mobility shift readout, Caliper lifesciences, conc. ATP = Km for each kinase)) EUB0000678a CAMK2A
[10] = molecular target: Mitogen-activated protein kinase 14 (Homo sapiens, UniProt Q16539); assay: Selectivity interaction (Kinase panel (Enzymatic assay, microfluidic mobility shift readout, Caliper lifesciences, conc. ATP = Km for each kinase)) EUB0000678a MAPK14
[11] = molecular target: Hepatocyte growth factor receptor (Homo sapiens, UniProt P08581); assay: Selectivity interaction (Kinase panel (Enzymatic assay, microfluidic mobility shift readout, Caliper lifesciences, conc. ATP = Km for each kinase)) EUB0000678a MET
[12] = Selectivity interaction (Kinase panel (cellular selectivity, Bright-Glo proliferation assay in BaF3 Cell line, Promega)) EUB0000678a KDR
[13] = molecular target: Tyrosine-protein kinase SYK (Homo sapiens, UniProt P43405); assay: Selectivity interaction (Kinase panel (Enzymatic assay, microfluidic mobility shift readout, Caliper lifesciences, conc. ATP = Km for each kinase)) EUB0000678a SYK
[14] = Selectivity interaction (Kinase panel (cellular selectivity, Bright-Glo proliferation assay in BaF3 Cell line, Promega)) EUB0000678a ROS1
[15] = Selectivity interaction (Kinase panel (cellular selectivity, Bright-Glo proliferation assay in BaF3 Cell line, Promega)) EUB0000678a LYN
[16] = Selectivity interaction (Kinase panel (cellular selectivity, Bright-Glo proliferation assay in BaF3 Cell line, Promega)) EUB0000678a BMX
[17] = molecular target: Phosphatidylinositol 3-kinase catalytic subunit type 3 (Homo sapiens, UniProt Q8NEB9); assay: Selectivity interaction (Kinase panel (KinaseGlo Luminescent Kinase Assay, Promega)) EUB0000678a PIK3C3
[18] = Selectivity interaction (Kinase panel (cellular selectivity, Bright-Glo proliferation assay in BaF3 Cell line, Promega)) EUB0000678a SRC
[19] = Selectivity interaction (Kinase panel (cellular selectivity, Bright-Glo proliferation assay in BaF3 Cell line, Promega)) EUB0000678a FLT1
[20] = Selectivity interaction (Kinase panel (cellular selectivity, Bright-Glo proliferation assay in BaF3 Cell line, Promega)) EUB0000678a KDR; remark: listed apart in the source
[21] = Selectivity interaction (Kinase panel (cellular selectivity, Bright-Glo proliferation assay in BaF3 Cell line, Promega)) EUB0000678a INSR
[22] = Selectivity interaction (Kinase panel (cellular selectivity, Bright-Glo proliferation assay in BaF3 Cell line, Promega)) EUB0000678a JAK2
[23] = molecular target: Tyrosine-protein kinase JAK2 (Homo sapiens, UniProt O60674); assay: Selectivity interaction (Kinase panel (Enzymatic assay, microfluidic mobility shift readout, Caliper lifesciences, conc. ATP = Km for each kinase)) EUB0000678a JAK2
[24] = Selectivity interaction (Kinase panel (cellular selectivity, Bright-Glo proliferation assay in BaF3 Cell line, Promega)) EUB0000678a FLT4
[25] = molecular target: Serine/threonine-protein kinase mTOR (Homo sapiens, UniProt P42345); assay: Selectivity interaction (Kinase panel (KinaseGlo Luminescent Kinase Assay, Promega)) EUB0000678a MTOR
[26] = Selectivity interaction (Kinase panel (cellular selectivity, Bright-Glo proliferation assay in BaF3 Cell line, Promega)) EUB0000678a NTRK2
[27] = molecular target: Cyclin-dependent kinase 2 (Homo sapiens, UniProt P24941); assay: Selectivity interaction (Kinase panel (Enzymatic assay, microfluidic mobility shift readout, Caliper lifesciences, conc. ATP = Km for each kinase)) EUB0000678a CDK2
[28] = molecular target: cAMP-dependent protein kinase catalytic subunit alpha (Homo sapiens, UniProt P17612); assay: Selectivity interaction (Kinase panel (Enzymatic assay, microfluidic mobility shift readout, Caliper lifesciences, conc. ATP = Km for each kinase)) EUB0000678a PRKACA
[29] = Selectivity interaction (Kinase panel (cellular selectivity, Bright-Glo proliferation assay in BaF3 Cell line, Promega)) EUB0000678a ALK
[30] = molecular target: Tyrosine-protein kinase JAK1 (Homo sapiens, UniProt P23458); assay: Selectivity interaction (Kinase panel (Enzymatic assay, microfluidic mobility shift readout, Caliper lifesciences, conc. ATP = Km for each kinase)) EUB0000678a JAK1
[31] = molecular target: Non-receptor tyrosine-protein kinase TYK2 (Homo sapiens, UniProt P29597); assay: Selectivity interaction (Kinase panel (Enzymatic assay, microfluidic mobility shift readout, Caliper lifesciences, conc. ATP = Km for each kinase)) EUB0000678a TYK2
Sequence of Non-receptor tyrosine-protein kinase TYK2 (P29597 whole entry): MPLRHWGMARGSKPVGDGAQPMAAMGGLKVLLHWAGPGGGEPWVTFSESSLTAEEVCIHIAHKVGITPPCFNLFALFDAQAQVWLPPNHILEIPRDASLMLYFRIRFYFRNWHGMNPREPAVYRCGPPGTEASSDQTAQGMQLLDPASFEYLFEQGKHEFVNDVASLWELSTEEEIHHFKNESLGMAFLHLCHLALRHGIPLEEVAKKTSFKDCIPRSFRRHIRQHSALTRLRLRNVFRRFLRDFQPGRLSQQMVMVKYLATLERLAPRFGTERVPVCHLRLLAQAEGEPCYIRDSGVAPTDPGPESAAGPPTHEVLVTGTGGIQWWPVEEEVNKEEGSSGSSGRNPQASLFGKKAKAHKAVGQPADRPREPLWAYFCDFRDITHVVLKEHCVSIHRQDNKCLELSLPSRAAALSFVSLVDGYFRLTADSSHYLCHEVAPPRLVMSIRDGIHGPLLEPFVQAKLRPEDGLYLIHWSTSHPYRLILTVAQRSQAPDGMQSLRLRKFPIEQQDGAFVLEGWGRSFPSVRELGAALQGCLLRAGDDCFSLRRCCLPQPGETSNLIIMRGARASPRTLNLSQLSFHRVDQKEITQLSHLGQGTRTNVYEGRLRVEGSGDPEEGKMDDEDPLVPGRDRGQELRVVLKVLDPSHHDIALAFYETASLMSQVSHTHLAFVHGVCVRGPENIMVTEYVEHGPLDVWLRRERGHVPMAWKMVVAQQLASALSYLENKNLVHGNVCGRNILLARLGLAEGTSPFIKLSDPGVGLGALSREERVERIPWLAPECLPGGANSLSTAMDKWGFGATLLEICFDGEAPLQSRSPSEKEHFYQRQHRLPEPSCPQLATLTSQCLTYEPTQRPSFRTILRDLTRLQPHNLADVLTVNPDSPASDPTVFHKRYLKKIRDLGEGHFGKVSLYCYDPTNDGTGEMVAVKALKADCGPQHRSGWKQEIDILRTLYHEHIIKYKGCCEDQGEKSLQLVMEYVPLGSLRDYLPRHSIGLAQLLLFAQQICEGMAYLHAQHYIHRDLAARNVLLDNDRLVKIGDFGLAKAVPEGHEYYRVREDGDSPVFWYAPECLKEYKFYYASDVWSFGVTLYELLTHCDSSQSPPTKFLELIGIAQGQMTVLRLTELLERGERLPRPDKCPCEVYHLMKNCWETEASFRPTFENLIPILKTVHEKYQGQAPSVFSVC

Sequence of Ribosomal protein S6 kinase alpha-1 (Q15418 whole entry): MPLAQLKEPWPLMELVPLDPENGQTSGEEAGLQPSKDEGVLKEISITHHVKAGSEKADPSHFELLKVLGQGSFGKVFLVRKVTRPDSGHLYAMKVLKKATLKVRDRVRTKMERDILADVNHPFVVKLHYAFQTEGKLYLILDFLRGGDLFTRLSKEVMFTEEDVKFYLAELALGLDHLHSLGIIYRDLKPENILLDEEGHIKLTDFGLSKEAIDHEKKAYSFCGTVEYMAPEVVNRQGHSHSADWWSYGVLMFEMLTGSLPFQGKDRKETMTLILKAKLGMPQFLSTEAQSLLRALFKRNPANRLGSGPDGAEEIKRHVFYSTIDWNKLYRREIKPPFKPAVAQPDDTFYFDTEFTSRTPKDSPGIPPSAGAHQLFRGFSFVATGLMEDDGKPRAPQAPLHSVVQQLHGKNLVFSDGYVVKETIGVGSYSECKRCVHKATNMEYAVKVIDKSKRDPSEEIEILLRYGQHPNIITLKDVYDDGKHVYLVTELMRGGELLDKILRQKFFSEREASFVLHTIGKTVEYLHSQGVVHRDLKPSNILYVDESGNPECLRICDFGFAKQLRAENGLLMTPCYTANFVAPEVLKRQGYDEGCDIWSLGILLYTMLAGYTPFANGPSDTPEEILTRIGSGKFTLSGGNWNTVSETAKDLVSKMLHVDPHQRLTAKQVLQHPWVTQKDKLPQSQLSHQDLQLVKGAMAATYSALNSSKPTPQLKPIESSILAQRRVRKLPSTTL
Sequence of Phosphatidylinositol 3-kinase catalytic subunit type 3 (Q8NEB9 whole entry): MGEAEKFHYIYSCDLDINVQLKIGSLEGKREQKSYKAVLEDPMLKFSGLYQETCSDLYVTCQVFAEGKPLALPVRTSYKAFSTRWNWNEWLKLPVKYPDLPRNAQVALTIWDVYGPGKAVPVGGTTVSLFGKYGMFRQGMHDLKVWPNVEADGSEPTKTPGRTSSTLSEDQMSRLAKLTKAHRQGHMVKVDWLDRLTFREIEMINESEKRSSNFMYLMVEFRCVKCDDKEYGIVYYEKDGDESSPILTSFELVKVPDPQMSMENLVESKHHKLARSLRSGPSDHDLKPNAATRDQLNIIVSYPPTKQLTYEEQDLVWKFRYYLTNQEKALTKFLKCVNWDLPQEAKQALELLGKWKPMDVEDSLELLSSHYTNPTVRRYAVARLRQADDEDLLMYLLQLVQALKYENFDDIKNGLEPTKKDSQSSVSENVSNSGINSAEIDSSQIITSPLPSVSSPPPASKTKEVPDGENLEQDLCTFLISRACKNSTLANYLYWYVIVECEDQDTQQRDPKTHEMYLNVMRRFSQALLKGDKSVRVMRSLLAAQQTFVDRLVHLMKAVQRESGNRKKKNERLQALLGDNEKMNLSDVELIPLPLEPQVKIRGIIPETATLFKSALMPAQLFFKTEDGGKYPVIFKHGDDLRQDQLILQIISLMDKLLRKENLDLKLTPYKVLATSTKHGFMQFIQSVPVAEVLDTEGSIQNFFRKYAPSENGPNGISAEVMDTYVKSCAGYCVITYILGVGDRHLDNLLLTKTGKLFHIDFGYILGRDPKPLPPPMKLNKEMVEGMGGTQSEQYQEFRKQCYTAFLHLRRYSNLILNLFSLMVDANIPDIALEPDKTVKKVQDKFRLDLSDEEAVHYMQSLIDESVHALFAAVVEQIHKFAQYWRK
Sequence of Tyrosine-protein kinase JAK1 (P23458 whole entry): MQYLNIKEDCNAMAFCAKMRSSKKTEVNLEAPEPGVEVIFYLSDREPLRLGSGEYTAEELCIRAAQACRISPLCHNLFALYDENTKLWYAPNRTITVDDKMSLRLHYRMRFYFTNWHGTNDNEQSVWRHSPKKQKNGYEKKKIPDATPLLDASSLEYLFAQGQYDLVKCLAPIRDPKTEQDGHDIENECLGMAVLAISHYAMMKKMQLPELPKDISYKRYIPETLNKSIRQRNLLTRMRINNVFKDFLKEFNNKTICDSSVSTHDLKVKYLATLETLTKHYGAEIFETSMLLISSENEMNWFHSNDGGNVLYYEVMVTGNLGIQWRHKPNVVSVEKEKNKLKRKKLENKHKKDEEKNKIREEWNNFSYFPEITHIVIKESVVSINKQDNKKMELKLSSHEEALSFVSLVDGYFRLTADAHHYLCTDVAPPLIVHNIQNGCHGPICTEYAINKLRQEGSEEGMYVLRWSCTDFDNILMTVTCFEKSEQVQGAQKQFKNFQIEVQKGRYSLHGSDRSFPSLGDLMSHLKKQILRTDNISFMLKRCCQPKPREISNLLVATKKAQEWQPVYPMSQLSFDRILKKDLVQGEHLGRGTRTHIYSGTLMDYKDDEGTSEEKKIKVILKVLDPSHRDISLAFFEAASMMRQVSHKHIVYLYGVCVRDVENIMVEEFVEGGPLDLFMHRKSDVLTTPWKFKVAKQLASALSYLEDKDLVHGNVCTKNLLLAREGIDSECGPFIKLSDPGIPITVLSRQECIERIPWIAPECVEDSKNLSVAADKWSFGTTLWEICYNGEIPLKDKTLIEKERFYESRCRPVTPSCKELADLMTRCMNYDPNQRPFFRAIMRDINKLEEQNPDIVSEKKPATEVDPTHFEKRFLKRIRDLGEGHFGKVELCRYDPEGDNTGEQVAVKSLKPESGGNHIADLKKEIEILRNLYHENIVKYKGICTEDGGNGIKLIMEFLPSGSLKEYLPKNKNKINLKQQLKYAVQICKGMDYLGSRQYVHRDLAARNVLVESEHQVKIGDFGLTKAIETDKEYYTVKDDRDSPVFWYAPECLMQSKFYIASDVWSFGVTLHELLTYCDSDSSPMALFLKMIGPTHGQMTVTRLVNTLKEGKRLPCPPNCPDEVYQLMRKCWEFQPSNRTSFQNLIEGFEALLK
Sequence of Calcium/calmodulin-dependent protein kinase type II subunit alpha (Q9UQM7 whole entry): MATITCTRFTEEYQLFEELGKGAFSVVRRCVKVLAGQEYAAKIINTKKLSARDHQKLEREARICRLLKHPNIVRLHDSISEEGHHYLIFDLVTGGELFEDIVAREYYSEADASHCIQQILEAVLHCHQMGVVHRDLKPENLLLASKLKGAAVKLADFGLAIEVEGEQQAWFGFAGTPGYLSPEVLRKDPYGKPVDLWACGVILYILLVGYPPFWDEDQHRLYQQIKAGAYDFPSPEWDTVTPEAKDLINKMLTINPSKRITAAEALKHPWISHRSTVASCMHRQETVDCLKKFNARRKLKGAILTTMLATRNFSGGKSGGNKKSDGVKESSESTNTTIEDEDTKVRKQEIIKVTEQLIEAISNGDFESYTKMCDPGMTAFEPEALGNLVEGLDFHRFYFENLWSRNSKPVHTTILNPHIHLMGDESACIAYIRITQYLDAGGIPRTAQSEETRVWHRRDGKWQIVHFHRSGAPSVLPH
Sequence of Mitogen-activated protein kinase 14 (Q16539 whole entry): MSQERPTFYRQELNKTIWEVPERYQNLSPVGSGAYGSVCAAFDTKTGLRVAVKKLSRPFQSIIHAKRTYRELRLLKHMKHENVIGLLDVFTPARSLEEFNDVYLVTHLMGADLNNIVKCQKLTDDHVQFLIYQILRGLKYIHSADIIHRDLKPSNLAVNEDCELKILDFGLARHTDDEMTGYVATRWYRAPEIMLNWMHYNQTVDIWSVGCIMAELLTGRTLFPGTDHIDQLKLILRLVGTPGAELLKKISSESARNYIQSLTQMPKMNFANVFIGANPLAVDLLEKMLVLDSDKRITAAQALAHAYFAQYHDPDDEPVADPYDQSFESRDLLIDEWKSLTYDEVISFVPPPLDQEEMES

IC50 [1]: > 10 µM | IC50 [2]: > 10 µM | IC50 [3]: 3.3 µM | IC50 [4]: 3.01 µM | IC50 [5]: 3.04 µM | IC50 [6]: 5.36 µM | IC50 [7]: 2.05 µM | IC50 [8]: 3.35 µM | IC50 [9]: > 10 µM | IC50 [10]: > 10 µM | IC50 [11]: > 10 µM | IC50 [12]: 1.45 µM | IC50 [13]: > 10 µM | IC50 [14]: 3.26 µM | IC50 [15]: 3.02 µM | IC50 [16]: 3.41 µM | IC50 [17]: > 9 µM | IC50 [18]: 2.97 µM | IC50 [19]: 1.51 µM | IC50 [20]: 0.938 µM | IC50 [21]: 3.37 µM | IC50 [22]: 2.88 µM | IC50 [23]: > 10 µM | IC50 [24]: 2.07 µM | IC50 [25]: > 9 µM | IC50 [26]: 3.14 µM | IC50 [27]: > 10 µM | IC50 [28]: > 10 µM | IC50 [29]: 3.08 µM | IC50 [30]: > 10 µM | IC50 [31]: > 10 µM
Compound: CCN1CCN(c2ccc(Nc3cc(N(C)C(=O)Nc4c(Cl)c(OC)cc(OC)c4Cl)ncn3)cc2)CC1 [INFIGRATINIB]
